Test results: PubChem BioAssay (NCI)
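Grown in 96-well plates, cells were treated for 48 hours with each compound at five concentrations. Insufficient inhibition: endpoint recorded as highest concentration tested. GI50 is the concentration that inhibits growth by half. TGI: concentration producing complete growth inhibition.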

Experiments:
Test in all cases: growth of human tumour cells (NCI), 48 h
HOP-92 NSCLC = system: HOP-92 NSCLC
A498 renal = system: A498 renal
NCI-H460 lung = system: NCI-H460 lung
M14 melanoma = system: M14 melanoma
OVCAR-5 ovarian = system: OVCAR-5 ovarian
786-0 renal = system: 786-0 renal
HCC-2998 colon = system: HCC-2998 colon
COLO 205 colon = system: COLO 205 colon
NCI-H23 lung = system: NCI-H23 lung
EKVX NSCLC = system: EKVX NSCLC
CCRF-CEM leukemia = system: CCRF-CEM leukemia
MDA-MB-435 = system: MDA-MB-435
CAKI-1 renal = system: CAKI-1 renal
A549 NSCLC = system: A549 NSCLC
SK-MEL-2 melanoma = system: SK-MEL-2 melanoma
SF-268 CNS = system: SF-268 CNS
SNB-75 CNS = system: SNB-75 CNS
SN12C renal = system: SN12C renal
MOLT-4 leukemia = system: MOLT-4 leukemia
NCI/ADR-RES ovarian = system: NCI/ADR-RES ovarian
HT29 colon = system: HT29 colon
LOX IMVI melanoma = system: LOX IMVI melanoma
RPMI-8226 leukemia = system: RPMI-8226 leukemia
DU-145 prostate = system: DU-145 prostate
UO-31 renal = system: UO-31 renal
SW-620 colon = system: SW-620 colon
SR leukemia = system: SR leukemia
NCI-H522 lung = system: NCI-H522 lung
SK-MEL-28 melanoma = system: SK-MEL-28 melanoma
MCF7 breast = system: MCF7 breast
PC-3 prostate = system: PC-3 prostate
SF-539 CNS = system: SF-539 CNS
U251 CNS = system: U251 CNS
SF-295 CNS = system: SF-295 CNS
T-47D breast = system: T-47D breast
OVCAR-4 ovarian = system: OVCAR-4 ovarian
HCT-116 colon = system: HCT-116 colon
TK-10 renal = system: TK-10 renal
UACC-257 melanoma = system: UACC-257 melanoma
MDA-N = system: MDA-N
OVCAR-8 ovarian = system: OVCAR-8 ovarian
SNB-19 CNS = system: SNB-19 CNS
HS 578T breast = system: HS 578T breast
UACC-62 melanoma = system: UACC-62 melanoma
IGROV1 ovarian = system: IGROV1 ovarian
K-562 leukemia = system: K-562 leukemia
ACHN renal = system: ACHN renal
HL-60(TB) leukemia = system: HL-60(TB) leukemia
RXF 393 renal = system: RXF 393 renal
HOP-62 NSCLC = system: HOP-62 NSCLC
SK-MEL-5 melanoma = system: SK-MEL-5 melanoma
SK-OV-3 ovarian = system: SK-OV-3 ovarian
KM12 colon = system: KM12 colon
MDA-MB-231 breast = system: MDA-MB-231 breast
BT-549 breast = system: BT-549 breast
HCT-15 colon = system: HCT-15 colon
OVCAR-3 ovarian = system: OVCAR-3 ovarian
MALME-3M melanoma = system: MALME-3M melanoma
KM20L2 colon = system: KM20L2 colon
NCI-H226 lung = system: NCI-H226 lung

CC(=O)O[C@H]1C(=O)[C@@]2(C)[C@H]([C@H](OC(=O)c3ccccc3)[C@]3(O)C[C@H](OC(=O)[C@H](O)[C@@H](NC(=O)OC(C)(C)C)c4ccco4)C(C)=C1C3(C)C)[C@]1(OC(C)=O)CO[C@@H]1C[C@@H]2O
TGI (HOP-92 NSCLC): 43.5 µM | TGI (A498 renal): 22.7 µM | TGI (NCI-H460 lung): > 19 µM | TGI (M14 melanoma): 25.2 µM | TGI (OVCAR-5 ovarian): 9.96 µM | TGI (786-0 renal): > 50 µM | TGI (HCC-2998 colon): 0.00901 µM | TGI (COLO 205 colon): < 0.005 µM | TGI (NCI-H23 lung): > 40.9 µM | TGI (EKVX NSCLC): > 50 µM | TGI (CCRF-CEM leukemia): 35.7 µM | TGI (MDA-MB-435): 2.27 µM | TGI (CAKI-1 renal): > 50 µM | TGI (A549 NSCLC): > 50 µM | TGI (SK-MEL-2 melanoma): 10.9 µM | TGI (SF-268 CNS): > 50 µM | TGI (SNB-75 CNS): < 0.005 µM | TGI (SN12C renal): 36.3 µM | TGI (MOLT-4 leukemia): 25.9 µM | TGI (NCI/ADR-RES ovarian): 0.643 µM | TGI (HT29 colon): 0.24 µM | TGI (LOX IMVI melanoma): 22.3 µM | TGI (RPMI-8226 leukemia): > 28.2 µM | TGI (DU-145 prostate): < 0.005 µM | TGI (UO-31 renal): > 34.9 µM | TGI (SW-620 colon): > 50 µM | TGI (SR leukemia): > 29 µM | TGI (NCI-H522 lung): 0.00875 µM | TGI (SK-MEL-28 melanoma): > 28.3 µM | TGI (MCF7 breast): 0.247 µM | TGI (PC-3 prostate): > 50 µM | TGI (SF-539 CNS): 0.0138 µM | TGI (U251 CNS): > 16.1 µM | TGI (SF-295 CNS): < 0.005 µM | TGI (T-47D breast): > 50 µM | TGI (OVCAR-4 ovarian): > 50 µM | TGI (HCT-116 colon): 17.5 µM | TGI (TK-10 renal): 29 µM | TGI (UACC-257 melanoma): > 47.2 µM | TGI (MDA-N): 0.0325 µM | TGI (OVCAR-8 ovarian): > 50 µM | TGI (SNB-19 CNS): > 50 µM | TGI (HS 578T breast): < 0.005 µM | TGI (UACC-62 melanoma): > 33.4 µM | TGI (IGROV1 ovarian): > 50 µM | TGI (K-562 leukemia): 13.4 µM | TGI (ACHN renal): > 48.1 µM | TGI (HL-60(TB) leukemia): 0.0241 µM | TGI (RXF 393 renal): 0.0338 µM | TGI (HOP-62 NSCLC): 0.601 µM | TGI (SK-MEL-5 melanoma): 19 µM | TGI (SK-OV-3 ovarian): 7.38 µM | TGI (KM12 colon): > 50 µM | TGI (MDA-MB-231 breast): 14.7 µM | TGI (BT-549 breast): < 0.005 µM | TGI (HCT-15 colon): 12.3 µM | TGI (OVCAR-3 ovarian): 0.0471 µM | TGI (MALME-3M melanoma): > 47 µM

O=C(N/N=C/c1cc(Cl)cc(Cl)c1[OH2+])c1ccncc1.O=S(=O)([O-])[O-].[Fe+2]
GI50 (HOP-92 NSCLC): 3.71 µM | TGI (HOP-92 NSCLC): 9.66 µM | TGI (NCI-H460 lung): 22.4 µM | TGI (M14 melanoma): 41.1 µM | TGI (KM20L2 colon): 36.3 µM | TGI (NCI-H226 lung): 41.9 µM | TGI (OVCAR-5 ovarian): 49.8 µM | TGI (786-0 renal): 53.9 µM | TGI (HCC-2998 colon): > 100 µM | TGI (COLO 205 colon): 40.5 µM | TGI (NCI-H23 lung): 51.3 µM | TGI (EKVX NSCLC): 29 µM | TGI (CCRF-CEM leukemia): 15.8 µM | TGI (A549 NSCLC): 53.9 µM | GI50 (SK-MEL-2 melanoma): 82.9 µM | TGI (SK-MEL-2 melanoma): 94.9 µM | TGI (SF-268 CNS): > 100 µM | TGI (SNB-75 CNS): > 100 µM | TGI (SN12C renal): 79.3 µM | TGI (MOLT-4 leukemia): 40 µM | TGI (HT29 colon): 28.6 µM | TGI (LOX IMVI melanoma): 0.332 µM | TGI (RPMI-8226 leukemia): 5.98 µM | TGI (UO-31 renal): 31.1 µM | TGI (SW-620 colon): > 100 µM | TGI (SR leukemia): 54.6 µM | TGI (NCI-H522 lung): 7.44 µM | TGI (SK-MEL-28 melanoma): > 100 µM | TGI (SF-539 CNS): 36.4 µM | TGI (SF-295 CNS): 35.3 µM | TGI (HCT-116 colon): 29.6 µM | TGI (TK-10 renal): 56 µM | TGI (UACC-257 melanoma): 41.7 µM | TGI (OVCAR-8 ovarian): > 100 µM | TGI (SNB-19 CNS): > 100 µM | TGI (UACC-62 melanoma): 41 µM | TGI (IGROV1 ovarian): 15.4 µM | TGI (K-562 leukemia): 51.4 µM | TGI (ACHN renal): 28.1 µM | TGI (HL-60(TB) leukemia): 2.09 µM | TGI (RXF 393 renal): 82.1 µM | TGI (HOP-62 NSCLC): 34.9 µM | TGI (SK-MEL-5 melanoma): > 100 µM | TGI (SK-OV-3 ovarian): > 100 µM | TGI (KM12 colon): 29.4 µM | TGI (HCT-15 colon): 35.2 µM | TGI (OVCAR-3 ovarian): 53.8 µM | TGI (MALME-3M melanoma): 29.3 µM
